Measured values: patent US8604202B2, “Thienopyridone derivatives as AMP-activated protein kinase (AMPK) activators” (Merck Patent GmbH, priority 2008, dated 2013)

Legend:
[1] = test system: ob/ob and db/db mice; details: 8 day administration; cited from earlier work
[2] = target: T1, AMPK protein (recombinant α1β1γ2) (Homo sapiens, UniProt Q13131+Q9Y478); assay: AMPK enzymatic activity (Delfia, AMARA peptide); type: biochemical; details: compound 30 μM vs AMP 30 μM; 125 μM ATP; 30 min room temperature; ratio 90% or higher = direct activator
T1 construct: made in house; host or cells: E. coli
Protocol: The following biological test allows the determination of the efficacy of such compounds of formula (I) onto AMPK protein (recombinant α1β1γ2).
Human recombinant AMPK enzyme was expressed in E. Coli and was reactivated in vitro by LKB1 prior to enzyme activity determination.
AMPK enzyme activities were assayed by using A Delfia technology. AMPK enzyme activities were carried out in microtiter plates (50 mM Hepes buffer, pH 7.4 with 125 μM ATP respectively) in the presence of a synthetic peptide substrate (AMARAASAAALARRR, the “AMARA” peptide) and activators in serial dilutions. Reactions were initiated by the addition of AMPK (50-100 ng). Following mixing, the plates were incubated for 30 min at room temperature. Enzyme activity was assayed by using an anti-phosphoserine antibody to measure the quantity of phosphate incorporated into the AMARAA.
Ratio between the % of control (basal activity) of compound of formula (I) at 30 μM and the % of control (basal activity) of AMP (natural substrate) at 30 μM. Compounds of formula (I) in the table II are considered as direct activator of AMPK if the ratio is 90% or higher.

[3] = test system: H-2 Kb cells; assay: Glucose uptake in H-2 Kb cells (in vitro cellular test); type: cell-based, mouse; details: differentiated H-2 Kb muscle cells, 4 hours incubation, 2-deoxy-D-[3H]glucose 10 min
Protocol: The following cellular test allows the determination of the effect of AMPK activators such as compounds of formula (I) onto glucose uptake in a muscle cellular model.
H-2 Kb cells derived from heterozygous H-2 Kb tsA58 transgenic mouse were grown in 24-well in plates coated with matrigel and were cultured at 33° C. for 4 days under permissive conditions, as described previously by Fryer et al. (Diabetes 49 (12): 1978, 2000).
For differentiation in muscle, cells were switched to non-permissive culture conditions (37° C. in the absence of interferon-γ). After 3 days, cells were incubated for 4 hours in DMEM 1 g/l glucose culture medium containing different concentrations of the tested molecules. Then glucose uptake was measured by incubating the cells for 10 min with radiolabelled 2-deoxy-D-[1, 2 ^3H] glucose. Glucose uptake was terminated by rapidly washing the plates 2 times with ice-cold NaCl 0.9%. The cells were then solubilized in 0.1N NaOH for 30 min. Radioactivity was determined by liquid scintillation counting.
Activity table III: Concentration of compound (1) for a glucose uptake equal or higher to glucose uptake induced by insulin (170 nM)

T1 sequence (Q13131 whole entry): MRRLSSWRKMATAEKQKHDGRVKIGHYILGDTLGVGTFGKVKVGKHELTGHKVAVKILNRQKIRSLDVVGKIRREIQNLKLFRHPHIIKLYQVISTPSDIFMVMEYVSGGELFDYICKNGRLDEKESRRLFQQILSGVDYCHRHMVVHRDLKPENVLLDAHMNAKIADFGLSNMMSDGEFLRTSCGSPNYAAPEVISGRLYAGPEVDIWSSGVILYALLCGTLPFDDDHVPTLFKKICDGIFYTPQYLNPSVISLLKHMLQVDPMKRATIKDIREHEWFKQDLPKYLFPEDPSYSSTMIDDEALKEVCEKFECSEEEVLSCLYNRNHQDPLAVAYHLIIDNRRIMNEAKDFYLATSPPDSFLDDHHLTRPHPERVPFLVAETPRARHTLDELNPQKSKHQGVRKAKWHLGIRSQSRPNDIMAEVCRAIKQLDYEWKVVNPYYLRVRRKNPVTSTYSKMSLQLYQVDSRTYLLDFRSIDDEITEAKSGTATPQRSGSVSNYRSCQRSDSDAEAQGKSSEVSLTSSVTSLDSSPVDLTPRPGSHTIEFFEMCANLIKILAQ
T1 sequence (Q9Y478 whole entry): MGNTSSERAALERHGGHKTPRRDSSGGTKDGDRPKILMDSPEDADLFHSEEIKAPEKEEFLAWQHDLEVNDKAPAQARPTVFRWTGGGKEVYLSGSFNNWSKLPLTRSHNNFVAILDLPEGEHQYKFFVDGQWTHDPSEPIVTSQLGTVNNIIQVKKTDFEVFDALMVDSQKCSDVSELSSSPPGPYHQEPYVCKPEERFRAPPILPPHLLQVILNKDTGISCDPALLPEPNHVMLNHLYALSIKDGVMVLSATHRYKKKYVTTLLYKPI
T1 sequence (Q9UGJ0 whole entry partner): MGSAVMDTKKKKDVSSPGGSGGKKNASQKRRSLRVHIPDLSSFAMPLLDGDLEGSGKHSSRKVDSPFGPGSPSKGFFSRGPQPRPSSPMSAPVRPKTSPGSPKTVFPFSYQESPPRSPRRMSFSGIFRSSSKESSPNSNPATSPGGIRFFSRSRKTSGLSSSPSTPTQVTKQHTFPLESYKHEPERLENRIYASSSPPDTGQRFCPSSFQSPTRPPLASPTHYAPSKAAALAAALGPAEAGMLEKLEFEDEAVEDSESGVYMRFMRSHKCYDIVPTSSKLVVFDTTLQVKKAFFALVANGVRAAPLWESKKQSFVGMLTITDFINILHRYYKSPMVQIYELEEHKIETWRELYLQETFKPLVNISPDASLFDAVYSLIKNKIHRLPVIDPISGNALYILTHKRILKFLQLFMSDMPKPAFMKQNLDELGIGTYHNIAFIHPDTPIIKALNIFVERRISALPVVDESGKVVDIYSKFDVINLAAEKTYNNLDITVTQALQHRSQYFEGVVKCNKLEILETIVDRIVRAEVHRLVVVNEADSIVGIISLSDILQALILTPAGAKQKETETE

| activity: Ratio between the % of control (basal activity) of compound of formula (I) at 30 μM and the % of control (basal activity) of AMP at 30 μM [2] [%] | Compound | reduces blood glucose [1] [%] | activity: Concentration of compound for a glucose uptake equal or higher to glucose uptake induced by insulin (170 nM) [3] |
| --- | --- | --- | --- |
| – | NC(=O)c1ncn([C@@H]2O[C@H](CO)[C@@H](O)[C@H]2O)c1N [AICAR, 5-aminoimidazole-4-carboxamide riboside] | 35 | – |
| 111 | COc1ccccc1-c1ccc(-c2c(Cl)sc3[nH]c(=O)c(-c4ccccc4)c(O)c23)cc1 [Compound 3, 2-chloro-4-hydroxy-3-(2′-methoxybiphenyl-4-yl)-5-phenyl-6,7-dihydro-thieno[2,3-b]pyridin-6-one] | – | ** (concentration of compound (I) ≦10 microMolar) |
